Series [1] has as its system SCCVII tumor. Briefly: Anti-cancer assay: SCCVII tumor volume in C3H mice. Type of series: in vivo. As to conditions: male C3H mice with subcutaneous SCCVII tumors; 1.15 mg/mL in 5% DMSO/water, intraperitoneal, q.o.d. on Days 0, 2 and 4 (3 doses). As to the method: Mice with SCC VII tumors were treated with Compound 1, which has the following chemical structure.
The Treatment Composition was Compound 1 in a water/DMSO carrier. The Treatment Composition was prepared by dissolving 2.3 mg of Compound 1 in 0.1 mL of DMSO and mixing the resultant solution with 1.9 mL of water to provide a solution containing 1.15 mg/mL of Compound 1. The concentration of dimethylsulfoxide (DMSO) in the Treatment Composition was 5%.
Male C3H mice were obtained from Charles River Laboratories and maintained under specific pathogen-free conditions. Mice were housed five animals per cage and autoclaved food and water was provided ad libitum. Cages were located in rooms having a temperature of 65±2 degrees Fahrenheit, a humidity of 50%±5%, and a 12-hour day-and-night light cycle. Mice were 7-8 weeks old, with a body weight in the range of 22-25 grams, at the time inoculated with tumor cells.
Mice were inoculated subcutaneously with 5×10^5 SCCVII tumor cells in 0.05 mL Hank's solution on the back. […] The length and width of the tumors were measured with calipers immediately before treatment and three times a week thereafter until the tumor volume reached at least four times (4×) the original pre-treatment volume. Tumor volume (mm^3) was calculated according to the formula: Tumor Volume=π/6×length×width^2 Part II: Results

A short description of series [2]: Toxicity evaluation in healthy rats. Type of series: in vivo. As to conditions: for Clinical observations: femoral vein infusion. As to the method:
Compound 1 was administered to healthy rats and the rats were evaluated for evidence of toxic side effects due to Compound 1. Experimental procedures and results are described below.
Two groups of 3 male rats each were given a 100 or 300 mg/kg dose of Compound 1 prepared in 0.9% saline solution. A third group of 3 rats were given saline alone. Doses were delivered via a femoral vein. The 100 mg/kg dose was delivered using a 10 mg/mL solution at a dose volume of 10 mL/kg and an infusion rate of 15 mL/hr. The 300 mg/kg dose was delivered using a 20 mg/mL solution at a dose volume of 15 mL/kg and an infusion rate of 15 mL/hr.

As for `N[C@@H](CSCC(=O)N1CC([N+](=O)[O-])([N+](=O)[O-])C1)C(=O)O` [Compound 1], the “Tumor volume versus untreated control” value in series [1] is “smaller than tumors in mice that did not receive the Treatment Composition”. The “Toxicity (overall conclusion)” value in series [2] (healthy male rats, 100 or 300 mg/kg in 0.9% saline via femoral vein, observed for 24 hours) is given as “no significant toxicity was observed”. The Clinical observations result in series [2] (rats, 100 mg/kg dose, observed for 24 hours) was “No notable clinical observations”; in series [2] (rats, 300 mg/kg dose, observed for 24 hours) it was “pale during the first 3 hours post dose”. In addition, the “Gross changes in the lungs at necropsy” value in series [2] (rats, 100 or 300 mg/kg, necropsy after 24 hours) was “no gross changes in the lungs”. In series [2] (rats, 100 or 300 mg/kg, necropsy after 24 hours, significance undetermined), the “Kidney observation at necropsy” value is reported as “Mottled kidneys were observed in most rats”.

The record behind these values is US9139519B2, “Organonitro thioether compounds and medical uses thereof” (EPICENTRX, INC., priority 2011, dated 2015).
